From patent US10626112B2, “Heterocyclic sulfonamide derivative and medicine comprising same” (EA PHARMA CO., LTD., priority 2014, dated 2020)

What follows are compounds tested against human TRPA1 (Homo sapiens (Human), UniProt O75762) (assay: Measurement of TRPA1 antagonist activity (1): intracellular calcium increase). Conditions: 293T cells transfected with human TRPA1 expression plasmid; allylisothiocyanate 20 μM stimulation; intracellular calcium fluorescence; read-out: hTRPA1 IC50.
Assay type: cell-based
Procedure, shortened: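 HEK293T cells transiently transfected with full-length human TRPA1, loaded with Calcium4 dye in HBSS/20 mM HEPES pH 7.2. Test compound preincubated 10 min, then allylisothiocyanate added at 20 μM final and fluorescence change followed for 5 min. IC50 from sigmoid fit of percent inhibition relative to agonist and buffer controls.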

human TRPA1, sequence (O75762 whole entry): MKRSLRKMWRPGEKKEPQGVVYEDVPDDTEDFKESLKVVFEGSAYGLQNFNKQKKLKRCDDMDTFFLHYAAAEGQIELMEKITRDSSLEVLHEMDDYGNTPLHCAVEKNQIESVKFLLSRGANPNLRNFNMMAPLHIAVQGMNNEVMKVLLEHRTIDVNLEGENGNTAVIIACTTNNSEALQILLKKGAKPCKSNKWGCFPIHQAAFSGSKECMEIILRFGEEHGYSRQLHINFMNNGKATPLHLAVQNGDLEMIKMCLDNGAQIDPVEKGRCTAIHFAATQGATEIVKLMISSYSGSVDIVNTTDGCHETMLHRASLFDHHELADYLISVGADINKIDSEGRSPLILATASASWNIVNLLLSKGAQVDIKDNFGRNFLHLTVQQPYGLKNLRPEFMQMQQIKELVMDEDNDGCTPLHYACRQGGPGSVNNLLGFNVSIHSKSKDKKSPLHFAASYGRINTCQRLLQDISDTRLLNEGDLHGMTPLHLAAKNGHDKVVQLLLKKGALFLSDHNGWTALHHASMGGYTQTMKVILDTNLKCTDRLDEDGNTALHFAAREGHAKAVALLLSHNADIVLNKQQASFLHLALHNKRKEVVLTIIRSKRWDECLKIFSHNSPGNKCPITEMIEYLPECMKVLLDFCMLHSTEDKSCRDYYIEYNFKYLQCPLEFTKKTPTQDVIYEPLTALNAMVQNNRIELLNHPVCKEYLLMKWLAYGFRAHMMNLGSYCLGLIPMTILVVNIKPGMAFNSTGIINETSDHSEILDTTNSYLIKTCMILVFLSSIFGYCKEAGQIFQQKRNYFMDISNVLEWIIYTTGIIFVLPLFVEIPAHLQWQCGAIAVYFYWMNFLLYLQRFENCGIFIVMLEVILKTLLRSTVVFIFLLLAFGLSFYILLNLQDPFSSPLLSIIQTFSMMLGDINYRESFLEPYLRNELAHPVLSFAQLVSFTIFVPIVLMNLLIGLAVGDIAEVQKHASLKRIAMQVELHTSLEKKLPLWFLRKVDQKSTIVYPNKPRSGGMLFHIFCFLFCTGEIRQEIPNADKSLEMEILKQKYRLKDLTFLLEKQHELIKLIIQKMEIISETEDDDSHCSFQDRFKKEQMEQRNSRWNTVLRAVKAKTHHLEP

Row | IC50 | Structure (SMILES)
1 | 0.0043 µM | O=C(NCc1cc(-c2ccc(C(F)(F)F)nn2)ccn1)[C@@H]1CCCN1S(=O)(=O)c1cc2ccccc2o1 [Example 202, (2S)-1-(benzofuran-2-ylsulfonyl)-N-[[4-[6-(trifluoromethyl)pyridazin-3-yl]-2-pyridyl]methyl]pyrrolidine-2-carboxamide]
2 | 0.12 µM | C[C@H](NS(=O)(=O)c1cc2cc(F)ccc2o1)C(=O)NCc1cncc(-c2ccc(C(F)(F)F)nc2)c1 [Example 245, (2S)-2-[(5-fluorobenzofuran-2-yl)sulfonylamino]-N-[[5-[6-(trifluoromethyl)-3-pyridyl]-3-pyridyl]methyl]propanamide]
3 | 0.054 µM | O=C(NCc1ccnc(-c2ccc(C(F)(F)F)cc2)c1)[C@@H]1CCCN1S(=O)(=O)c1cc2ccc(F)cc2o1 [Example 220, (2S)-1-(6-fluorobenzofuran-2-yl)sulfonyl-N-[[2-[4-(trifluoromethyl)phenyl]-4-pyridyl]methyl]pyrrolidine-2-carboxamide]
4 | 0.0053 µM | CN(C)c1nc(CNC(=O)[C@@H]2CCCN2S(=O)(=O)c2cc3ccccc3o2)cc(-c2ccc(C(F)(F)F)cc2)n1 [Example 312, (2S)-1-(benzofuran-2-ylsulfonyl)-N-[[2-(dimethylamino)-6-[4-(trifluoromethyl)phenyl]pyrimidin-4-yl]methyl]pyrrolidine-2-carboxamide]
5 | 0.0098 µM | O=C(NCc1cccc(OCc2ccnc(C(F)(F)F)c2)c1)[C@@H]1CCCN1S(=O)(=O)c1cc2cnccc2o1 [Example 274, (2S)-1-furo[3,2-c]pyridin-2-ylsulfonyl-N-[[3-[[2-(trifluoromethyl)-4-pyridyl]methoxy]phenyl]-methyl]pyrrolidine-2-carboxamide]
6 | 0.16 µM | C[C@H](NS(=O)(=O)c1cc2cc(F)ccc2o1)C(=O)NCc1cc(-c2ncc(C(F)(F)F)cn2)ccn1 [Example 242, (2S)-2-[(5-fluorobenzofuran-2-yl)sulfonylamino]-N-[[4-[5-(trifluoromethyl)pyrimidin-2-yl]-2-pyridyl]methyl]propanamide]
7 | 0.17 µM | O=C(NCc1ccnc(-c2cc(C(F)(F)F)n[nH]2)c1)[C@@H]1CCCN1S(=O)(=O)c1cc2ccccc2o1 [Example 294, (2S)-1-(benzofuran-2-ylsulfonyl)-N-[[2-[3-(trifluoromethyl)-1H-pyrazol-5-yl]-4-pyridyl]methyl]pyrrolidine-2-carboxamide]
8 | 0.58 µM | CNc1ccccc1-c1cc(CNC(=O)[C@@H]2CCCN2S(=O)(=O)c2cc3ccccc3o2)ccn1 [Example 292, (2S)-1-(benzofuran-2-ylsulfonyl)-N-[[2-[2-(methylamino)phenyl]-4-pyridyl]methyl]pyrrolidine-2-carboxamide]
9 | 0.33 µM | C[C@H](NS(=O)(=O)c1cc2cc(F)ccc2o1)C(=O)NCc1cc(-c2ccc(C(F)(F)F)cn2)cnn1 [Example 251, (2S)-2-[(5-fluorobenzofuran-2-yl)sulfonylamino]-N-[[5-[5-(trifluoromethyl)-2-pyridyl]pyridazin-3-yl]methyl]propanamide]
10 | 0.0021 µM | O=C(NCc1cc(-c2ccc(C(F)(F)F)cn2)c(O)cn1)[C@@H]1CCCN1S(=O)(=O)c1cc2ccccc2o1 [Example 215, (2S)-1-(benzofuran-2-ylsulfonyl)-N-[[5-hydroxy-4-[5-(trifluoromethyl)-2-pyridyl]-2-pyridyl]methyl]pyrrolidine-2-carboxamide]
11 | 0.31 µM | O=C(NCc1cccc(S(=O)(=O)c2ccc(C(F)(F)F)cc2)c1)[C@@H]1CCCN1S(=O)(=O)c1cc2ccccc2o1 [Example 322, (2S)-1-(benzofuran-2-ylsulfonyl)-N-[[3-[4-(trifluoromethyl)phenyl]sulfonylphenyl]methyl]pyrrolidine-2-carboxamide]

Second part, the compound before the results:

Row | Structure (SMILES) | IC50
12 | O=C(NCc1cccc(OCc2cccc(OCCN3CCOCC3)c2)c1)[C@@H]1CCCN1S(=O)(=O)c1cc2cc(F)ccc2o1 [Example 28, (2S)-1-(5-fluorobenzofuran-2-yl)sulfonyl-N-[[3-[[3-(2-morpholinoethoxy)phenyl]-methoxy]phenyl]methyl]-pyrrolidine-2-carboxamide] | 0.056 µM
13 | O=C(NCc1ccnc(-c2cc3ccccc3[nH]2)c1)[C@@H]1CCCN1S(=O)(=O)c1cc2ccccc2o1 [Example 176, (2S)-1-(benzofuran-2-ylsulfonyl)-N-[[2-(1H-indol-2-yl)-4-pyridyl]methyl]pyrrolidine-2-carboxamide] | 0.32 µM
14 | N#Cc1ccc(COc2cc(F)cc(CNC(=O)[C@@H]3CCCN3S(=O)(=O)c3cc4cc(F)ccc4o3)c2)cc1 [Example 36, (2S)-N-[[3-[(4-cyanophenyl)methoxy]-5-fluoro-phenyl]methyl]-1-(5-fluorobenzofuran-2-yl)sulfonyl-pyrrolidine-2-carboxamide] | 0.0015 µM
15 | O=C(NCc1ccc(OC(F)(F)F)c(F)c1)[C@@H]1CCCN1S(=O)(=O)c1cc2cc(F)ccc2o1 [Example 69, (2S)-1-(5-fluorobenzofuran-2-yl)sulfonyl-N-[[3-fluoro-4-(trifluoromethoxy)phenyl]methyl]-pyrrolidine-2-carboxamide] | 0.012 µM
16 | O=C(NCc1ccnc(-c2ccc(F)cc2)c1)[C@@H]1CCCN1S(=O)(=O)c1cc2ccccc2o1 [Example 114, (2S)-1-(benzofuran-2-ylsulfonyl)-N-[[2-(4-fluorophenyl)-4-pyridyl]methyl]pyrrolidine-2-carboxamide] | 0.032 µM
17 | C[C@H](NS(=O)(=O)c1cc2ccccc2o1)C(=O)NCc1cc(C(F)(F)F)ccc1Cl [Example 72, (2S)-2-(benzofuran-2-ylsulfonylamino)-N-[[2-chloro-5-(trifluoromethyl)phenyl]methyl]-propanamide] | 0.35 µM
18 | O=C(NCc1cccc(OCc2ccccn2)c1)[C@@H]1CCCN1S(=O)(=O)c1cc2cc(F)ccc2o1 [Example 15, (2S)-1-(5-fluorobenzofuran-2-yl)sulfonyl-N-[[3-(2-pyridylmethoxy)phenyl]-methyl]pyrrolidine-2-carboxamide] | 0.1 µM
19 | O=C(NCc1ccc(Oc2ccnc(C(F)(F)F)c2)cc1)[C@@H]1CCCN1S(=O)(=O)c1cc2cc(F)ccc2o1 [Example 56, (2S)-1-(5-fluorobenzofuran-2-yl)sulfonyl-N-[[4-[[2-(trifluoromethyl)-4-pyridyl]oxy]phenyl]methyl]-pyrrolidine-2-carboxamide] | 0.021 µM
20 | O=C(NCc1ccnc(-c2cnc(C(F)(F)F)nc2)c1)[C@@H]1CCCN1S(=O)(=O)c1cc2ccccc2o1 [Example 199, (2S)-1-(benzofuran-2-ylsulfonyl)-N-[[2-[2-(trifluoromethyl)pyrimidin-5-yl]-4-pyridyl]methyl]pyrrolidine-2-carboxamide] | 0.005 µM
21 | O=C(NCc1cccc(-c2ccc(C(F)(F)F)nn2)c1)[C@@H]1CCCN1S(=O)(=O)c1cc2ccccc2o1 [Example 197, (2S)-1-(benzofuran-2-ylsulfonyl)-N-[[3-[6-(trifluoromethyl)pyridazin-3-yl]phenyl]methyl]-pyrrolidine-2-carboxamide] | 0.003 µM
22 | O=C(NCc1cccc(OCc2ccnc(C(F)(F)F)c2)c1)[C@@H]1CCCN1S(=O)(=O)c1cc2cc(F)ccc2o1 [Example 16, (2S)-1-(5-fluorobenzofuran-2-yl)sulfonyl-N-[[3-[[2-(trifluoromethyl)-4-pyridyl]methoxy]phenyl]-methyl]pyrrolidine-2-carboxamide] | 0.0028 µM
23 | N#Cc1ccc(-c2cncc(CNC(=O)[C@@H]3CCCN3S(=O)(=O)c3cc4cc(F)ccc4o3)c2)cc1 [Example 142, (2S)-N-[[5-(4-cyanophenyl)-3-pyridyl]methyl]-1-(5-fluorobenzofuran-2-yl)sulfonyl-pyrrolidine-2-carboxamide] | 0.024 µM
24 | Cn1nc(C(F)(F)F)cc1-c1ccnc(CNC(=O)[C@@H]2CCCN2S(=O)(=O)c2cc3ccccc3o2)c1 [Example 154, (2S)-1-(benzofuran-2-ylsulfonyl)-N-[[4-[2-methyl-5-(trifluoromethyl)pyrazol-3-yl]-2-pyridyl]methyl]pyrrolidine-2-carboxamide] | 0.042 µM
25 | O=C(NCc1ccnc(-c2cnc(C3CC3)nc2)c1)[C@@H]1CCCN1S(=O)(=O)c1cc2cc(F)ccc2o1 [Example 134, (2S)-N-[[2-(2-cyclopropylpyrimidin-5-yl)-4-pyridyl]methyl]-1-(5-fluorobenzofuran-2-yl)sulfonyl-pyrrolidine-2-carboxamide] | 0.042 µM
26 | O=C(NCc1ccnc(-c2ccc(C(F)(F)F)nc2)c1)[C@@H]1CCCN1S(=O)(=O)c1cc2cc(F)ccc2o1 [Example 133, (2S)-1-(5-fluorobenzofuran-2-yl)sulfonyl-N-[[2-[6-(trifluoromethyl)-3-pyridyl]-4-pyridyl]methyl]pyrrolidine-2-carboxamide] | 0.00083 µM
27 | O=C(NCc1ccnc(-c2ccc(C(F)(F)F)cc2O)c1)[C@@H]1CCCN1S(=O)(=O)c1cc2cc(F)ccc2o1 [Example 138, (2S)-1-(5-fluorobenzofuran-2-yl)sulfonyl-N-[[2-[2-hydroxy-4-(trifluoromethyl)phenyl]-4-pyridyl]methyl]pyrrolidine-2-carboxamide] | 0.00097 µM
28 | C[C@H](NS(=O)(=O)c1cc2cc(F)ccc2o1)C(=O)NCc1cccc(OCc2ccc(C(F)(F)F)cc2)c1 [Example 49, (2S)-2-[(5-fluorobenzofuran-2-yl)sulfonylamino]-N-[[3-[[4-(trifluoromethyl)phenyl]methoxy]-phenyl]methyl]propanamide] | 0.018 µM
29 | O=C(NCc1cccc(OCc2ccccc2)c1)[C@@H]1CCCN1S(=O)(=O)c1cc2cc(F)ccc2o1 [Example 43, (2S)-N-[(3-benzyloxyphenyl)methyl]-1-(5-fluorobenzofuran-2-yl)sulfonyl-pyrrolidine-2-carboxamide] | 0.0016 µM
30 | O=C(NCc1ccc(Oc2cccc(C(F)(F)F)c2)cc1)[C@@H]1CCCN1S(=O)(=O)c1cc2ccccc2o1 [Example 50, (2S)-1-(benzofuran-2-ylsulfonyl)-N-[[4-[3-(trifluoromethyl)phenoxy]phenyl]-methyl]pyrrolidine-2-carboxamide] | 0.16 µM
